Data published in patent US11884647B2, “Compounds and methods for targeting pathogenic blood vessels” (THE REGENTS OF THE UNIVERSITY OF CALIFORNIA, priority 2019, dated 2024).

Tested on: tumor endothelial cells (LL/2 lung cancer tumor)
Test: Lung LL2 ex vivo model of tumor angiogenesis
Format: cell-based, mouse
Summary of the method: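 Read-out is live/dead fluorescence imaging (fluorescein diacetate green, propidium iodide red, 10 min at 37° C) at 2×, taken e.g. 48 h after drug addition. Fragments of mouse LL2 tumor are cultured in Matrigel with endothelial growth medium, usually 4 days, until new endothelial cells grow out, then treated.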

[1] = Mus musculus, Endothelial cell, 48 h, read-out: Cell death
[2] = Lung LL2 ex vivo, Conc. 20 μm, (24 hrs)

CCCCCCCCCCCCCCOc1ccc(S(=O)(=O)c2cnc3ccc([S+](C)[O-])cc3c2N2CCC(N3CCC(N4CCN(C)CC4)CC3)CC2)cc1F (stereo not shown) [compound 371, 3-((3-fluoro-4-(tetradecyloxy)phenyl)sulfonyl)-4-(4-(4-methylpiperazin-1-yl)-[1,4′-bipiperidin]-1′-yl)-6-(methylsulfinyl)quinoline]
cytotoxicity at 20 µM [1]: 30%

CCCCCCCOc1ccc(S(=O)(=O)c2cnc3ccc(SC)cc3c2N2CCN(CCN3CCCCC3)CC2)cc1 [compound 281, 3-((4-(heptyloxy)phenyl)sulfonyl)-6-(methylthio)-4-(4-(2-(piperidin-1-yl)ethyl)piperazin-1-yl)quinoline]
cytotoxicity at 20 µM [1]: 50%

CCCCCCCCCCOc1ccc(S(=O)(=O)c2cnc3ccc([S+](C)[O-])cc3c2N2CCC(N3CCC(N4CCN(CCO)CC4)CC3)CC2)cc1 (stereo not shown) [compound 292, 2-(4-(1′-(3-((4-(decyloxy)phenyl)sulfonyl)-6-(methylsulfinyl)quinolin-4-yl)-[1,4′-bipiperidin]-4-yl)piperazin-1-yl)ethan-1-ol]
Cell death (24 hrs) [2]: 10%
Morphology observations (24 hrs) [2]: * (50% or less of cells vesicularize in cell shape)

CCOC(=O)c1ccc2ncc(S(=O)(=O)c3ccc(OC)cc3)c(-n3ccnn3)c2c1 [compound 184, ethyl 3-((4-methoxyphenyl)sulfonyl)-4-(1H-1,2,3-triazol-1-yl)quinoline-6-carboxylate]
cytotoxicity at 10 µM [1]: 5%

CCCCCCCCCCCCOc1ccc(S(=O)(=O)c2cnc3ccc([S+](C)[O-])cc3c2N2CCC(N3CCC(N4CCCCC4)CC3)CC2)cc1F (stereo not shown) [compound 363, 4-([1,4′:1′,4″-terpiperidin]-1″-yl)-3-((4-(dodecyloxy)-3-fluorophenyl)sulfonyl)-6-(methylsulfinyl)quinoline]
cytotoxicity at 20 µM [1]: 30%

CCc1ccc(S(=O)(=O)c2cnc3ccc(OC(F)(F)F)cc3c2Nc2ccncc2)cc1 [compound 107, 3-((4-ethylphenyl)sulfonyl)-N-(pyridin-4-yl)-6-(trifluoromethoxy)quinolin-4-amine]
cytotoxicity at 20 µM [1]: 0%
